What all share (assay type): cell-based
In assay [1] the test system is HIV-1NL4-3. The assay is described as follows: HIV-1 replication in PBMCs (p24 […]). The settings on record: Table S1, WT virus, 10-fold serial dilution. As for the experimental part:
The p24 level from the cell supernatant was subsequently determined using a p24 […] kit (PerkinElmer). In parallel, the cell viability was determined without viral infection because of the viral cytopathic effect. […] In parallel, cell viability was determined. The data (A and B) are presented as the mean ± SD (n = 3). (C) PBMCs (4 × 10^5) infected with HIV-AD8 at an MOI of 0.1 were treated with 1.5 µM of the compounds or ARVs for 3 days. The levels of p24 and cell viability were subsequently determined. (D) J1.1 cells were cultured with the compounds ([…]) under 50 ng/mL phorbol myristate acetate (PMA) treatment for 2 days. The level of p24 was subsequently determined. (E) J-Lat 6.3 cells were treated with the compounds (1.5 µM) under 1 µg/mL of PMA for 2 days. The GFP-positive cell population was analyzed using flow cytometry. The data are represented as a value relative to the DMSO-treated vehicle (D) and a percent of the GFP^+ cell population (E) as mean ± SD (n = 3).
The inhibitory effects of the compounds on viral replication were determined with some minor modifications, as previously described ([12], [62]). […] PBMCs (4 × 10^5) pre-activated with PHA-M for 3 days were washed with fresh media to remove excess PHA-M and subsequently infected with HIV-1NL4-3 or HIV-1AD8 or PIs-resistant HIV-1 strains as A3.01 infection. After infection, the infectious media were replaced with fresh media supplemented with international 10 units (IU)/mL of IL-2 and the indicated compounds. At 72 h after infection, the inhibitory effect of the compounds on viral replication was determined by measuring the p24 amount, an HIV capsid protein, using an HIV-1 p24 […] kit (PerkinElmer, Waltham, MA, USA). Cell viability was determined as described above. The inhibitory effects on provirus reversing in J1.1 and J-Lat 6.3 cells were determined as previously described ([12], [41], [63]) with some minor modifications. Briefly, 5 × 10^4 persistently HIV-1-infected J1.1 or J-Lat 6.3 cells were cultured in either the presence or absence of the compounds at a final concentration of 1.5 µM and treated with PMA (50 ng/mL for J1.1 cells, 1 µg/mL for J-Lat 6.3 cells). Two days after treatment, the levels of viral production were determined using p24 […] for J1.1 cells and flow cytometry analysis for GFP-expressing J-Lat 6.3 cells.

The test system of assay [2] is PI-resistant HIV-1 strain 11800. The assay is described as follows: microbe, parasite or virus in culture. An excerpt:
(§1) The Tzm-bl-derived dual Tat reporter; TZM-bl/Tat/Rluc (bl-DTR) cells were established from TZM-bl cells using two Dox-inducible lentiviral expression cassettes cloned with Flag-tagged Tat86 and the R-Luc gene, as described in our previous study ([11]). TZM-bl, A3.01, J1.1, and J-Lat 6.3 cells as well as the HIV-1 molecular clone pNL4-3, pNL(AD8), ARV-resistant HIV-1 strains, and HIV-1NL43-IRES-eGFP (pBR43IeG-nef^+, gifted by Dr. Frank Kirchhoff) ([52]) were provided by the National Institute of Health HIV Reagent Program (NIH, Bethesda, MD, USA). HeLa (CCL-2) and 293T (CRL-3216) cell lines were purchased from the American Type Culture Collection (ATCC, Manassas, VA, USA). The bl-DTR, TZM-bl, HeLa, and 293T cells were cultured in Dulbecco’s modified Eagle’s medium supplemented with 1% penicillin–streptomycin and 10% (vol/vol) heat-inactivated fetal bovine serum (all from Gibco-BRL, Gaithersburg, MD, USA), and 1 µg/mL of puromycin and 200 µg/mL of zeocin were additionally supplemented for the bl-DTR cells. PBMCs were purchased from AllCells (Alameda, CA, USA) and cultured as previously described ([12]). The information on ARV-resistant HIV-1 strains was described in previous reports as follows: NNRTI-resistant 12241 and 12243 ([53]); NRTI-resistant 7396, 7406, and 7407 ([54]); INSTI-resistant 11847 and 11849 ([55], [56]); and PI-resistant 11800 and 11803 ([57]). Each molecular HIV-1 clone was transfected to 293T cells, as previously described ([58]), to obtain infectious HIV-1 particles. Virus-containing cell culture supernatants were collected 3 days after transfection, and filtered through a 0.45-µm membrane filter (Millipore Sigma, Burlington, MA, USA) to remove cell debris. The viral titration was performed as described previously ([59]) with some minor modifications. In brief, 1 × 10^4 TZM-bl cells seeded in 96-well plates were infected with 200 µL of virus-containing medium diluted serially twofold. The incubation was for 2 days and the experiment was performed in triplicate; the infection time minimized the virus spread ([59]). The titration of the infectious viral particles was performed with a ß-Gal staining assay using the ßeta-Galactosidase Staining Kit (Mirus Bio, Madison, WI, USA) following the manufacturer’s protocols. In brief, the infected cells were washed with phosphate-buffered saline (PBS) and fixed using a Cell Fixative Working solution. The cells were washed with PBS and stained using the Cell Staining Working Solution containing X-gal. The infected blue-colored cells were counted under a microscope (100× magnification). The infectious virus titer was determined as a mean value of blue-colored cells count × dilution factor and used for determining the multiplicity of infection (MOI) in each infection experiment.
(§2) The inhibitory effects of the compounds on viral replication were determined with some minor modifications, as previously described ([12], [62]). […] PBMCs (4 × 10^5) pre-activated with PHA-M for 3 days were washed with fresh media to remove excess PHA-M and subsequently infected with HIV-1NL4-3 or HIV-1AD8 or PIs-resistant HIV-1 strains as A3.01 infection. After infection, the infectious media were replaced with fresh media supplemented with international 10 units (IU)/mL of IL-2 and the indicated compounds. At 72 h after infection, the inhibitory effect of the compounds on viral replication was determined by measuring the p24 amount, an HIV capsid protein, using an HIV-1 p24 […] kit (PerkinElmer, Waltham, MA, USA). Cell viability was determined as described above. The inhibitory effects on provirus reversing in J1.1 and J-Lat 6.3 cells were determined as previously described ([12], [41], [63]) with some minor modifications.

Assay [3] has as its system PI-resistant HIV-1 strain 11803. The assay is described as follows: microbe, parasite or virus in culture.
Excerpt: as §1, §2

The subject of assay [4] is HIV-1NL4-3. The assay is described as follows: HIV-1 infectivity in TZM-bl cells (F-Luc). The settings on record: Human immunodeficiency virus 1, TZM-bl, 48 h, Table S1, WT virus, TZM-bl, fivefold serial dilutions, MOI 1, 48 h; read-out: EC50.
Method: The TZM-bl cells (also referred to as JC53BL-13) expressing human CD4, CXCR4, and CCR5 carrying the F-Luc and lacZ genes downstream of the HIV-1 LTR promoter ([60]) were used to determine the inhibitory effect of the compounds on HIV-1 infection, as previously described ([11], [12], [61]). In brief, 1 × 10^4 cells were cultured in 96-well plates for 24 h and subsequently treated with compounds at the indicated concentrations. Without replacement of the culture medium, the cells were subsequently infected with the HIV-1NL4-3 wild-type or ARV-resistant HIV-1 strains at an MOI of 1 to determine the exact inhibitory effect of compounds on a single-round infection. After 48 h, the inhibitory effect of the compounds was determined using a Bright Glo luciferase assay kit (Promega) or β-Galactosidase Enzyme Assay kit (Promega). The infectivity data were presented as a percentage relative to the dimethyl sulfoxide (DMSO) control (vehicle). Cell viability was determined using the resazurin-based PrestoBlue Cell Viability Reagent (Thermo Fisher Scientific, Waltham, MA, USA) following the manufacturer’s instructions.
Assay [5] relates to NRTI-resistant HIV-1 strain 7396. The assay is described as follows: microbe, parasite or virus in culture. The conditions noted are these: Human immunodeficiency virus 1, TZM-bl. As for the experimental part:
(§3) Fig 7 (A–C) TZM-bl cells (1 × 10^4 cells/well) cultured in a 96-well plate were treated with fivefold serial dilutions of the indicated compound or ARV for 1 h before infection with the HIV-1NL4-3 or ARV-resistant HIV-1 strains at an MOI of 1, respectively. At 48 h after infection, the EC50 values were determined using an F-Luc activity. The symbols represent the fold-change values of EC50 against each mutant virus relative to the wild-type (WT) virus. (D) PBMCs (5 × 10^4 cells/well) were infected with the HIV-1NL4-3 and PIs-resistant HIV-1 strain at an MOI of 0.1, respectively. Subsequently, the PBMCs were treated with 10-fold serial dilutions of the indicated compounds or PI. At 3 days after infection, the EC50 values on the viral replication were determined using a p24 […] assay kit. (E) The inhibitory kinetics for the WT and ARV-resistant viruses. TZM-bl cells infected with WT or ARV-resistant viruses were cultured upon fivefold serial dilutions of each compound for 2 days and the infectivity was determined using an F-Luc activity.
as §1

In assay [6] the test system is NRTI-resistant HIV-1 strain 7406. The assay is described as follows: microbe, parasite or virus in culture. The settings on record: Human immunodeficiency virus 1, TZM-bl. The protocol:
as §3, §1

Assay [7] relates to NRTI-resistant HIV-1 strain 7407. The assay is described as follows: microbe, parasite or virus in culture. The conditions noted are these: Human immunodeficiency virus 1, TZM-bl. As for the experimental part:
as §3, §1

Assay [8] concerns HIV-1NL4-3. The assay is described as follows: Time-of-addition assay in TZM-bl cells. The settings on record: HIV-1NL4-3 MOI 1, 9 and 13 1.5 μM, T-20 1 µM, triptolide 5 nM, ARVs 1 µM, F-Luc at 54 h. The protocol:
Fig 5 (A) Time-of-addition assay. […] Subsequently, the cells were treated with the compounds at the indicated time points (0, 1, 2, 4, 6, 8, 10, 12, 24, 30, 36, 42, and 48 h) after HIV-1 infection. The final concentrations of compounds are described in Materials and Methods. Viral activity according to the timing of drug addition was measured as F-Luc activity at 54 h after infection. The relative activities are represented as the mean ± SD (n = 3) compared with the activity observed 54 h post-infection. The relative time frames associated with each HIV-1 infection step are defined based on the time frame of susceptibility to the drug that blocks that particular infection step. […] At 16 h after infection, the viral reverse transcription (RT) product (viral cDNA) level was determined by quantitative real-time PCR (RT-qPCR) using gag and 18S rRNA primer sets and represented as the mean ± SD (n = 3) normalized against the amount of the 18S rRNA compared with the DMSO control. **P < 0.01 compared with the vehicle (DMSO). (C) An in vitro integrase (IN) assay was performed with 10 µM of the indicated compounds following the manufacturer’s protocol. **P < 0.01 compared with vehicle (DMSO). (D) A3.01 cells were infected with HIV-1 upon treatment with the indicated compounds (5 µM) and ARVs (EFV and DTG) as the experimental controls. At 40 h after infection, cellular chromosomal DNA was purified, and the integrated proviral DNA was detected through nested Alu-PCR amplification.
A time-of-addition assay was performed as previously described ([25]) with minor modifications. […] Reference drug and test compounds were subsequently added at the indicated time (0, 1, 2, 4, 6, 8, 10, 12, 24, 30, 36, 42, and 48 h after infection). Final concentrations were as follows: compounds 9 and 13 (1.5 μM), T-20 (1 µM), Triptolide (5 nM), and ARVs (AZT, EFV, DTG, RAL) (1 µM). The viral activity according to the timing of drug addition was measured using a Bright Glo luciferase assay kit (Promega). Virus activity curves present a % activity relative to the activity observed at 54 h after infection, and the data are presented as the mean ± standard deviation (SD) (n = 3). The relative time frame associated with each HIV-1 infection step was defined based on the sensitivity to each drug that blocks a particular infection step.

[9] abbreviates: PI-resistant 11800, PBMCs, 10-fold serial dilution, read-out: EC50.
[10] abbreviates: PI-resistant 11803, PBMCs, 10-fold serial dilution, read-out: EC50.
[11] abbreviates: Human immunodeficiency virus 1, PBMC.

One may read the EC50 as the concentration that produces a half-maximal response.

Where two headings read alike, the source gives them in different places.

With `CC(C)(C)NC(=O)[C@@H]1C[C@@H]2CCCC[C@@H]2CN1C[C@@H](O)[C@H](Cc1ccccc1)NC(=O)[C@H](CC(N)=O)NC(=O)c1ccc2ccccc2n1` [SQV, sequinavir], the EC50 in assay [1] (read-out: EC50) worked out at 0.00824 ± 0.00015 µM; in assay [2] (setting [9]) it was 0.01 µM; in assay [3] (setting [10]) it was 1.24 ± 0.13 µM.
As for `Cc1cn([C@H]2C[C@H](N=[N+]=[N-])[C@@H](CO)O2)c(=O)[nH]c1=O` [AZT, zidovudine], the EC50 is 0.11 ± 0.01 µM in assay [4], 16.4 ± 1.37 µM in assay [5], 73.12 ± 0.43 µM in assay [6] and over 100 µM in assay [7]. Moreover, the “time of administration after infection at which effectiveness began to decrease / was lost” value in assay [8] is 6 h.
With `CC(C)CN(C[C@@H](O)[C@H](Cc1ccccc1)NC(=O)O[C@H]1CO[C@H]2OCC[C@H]21)S(=O)(=O)c1ccc(N)cc1` [DRV, darunavir], the values for the EC50 in assay [1] (setting [11]), in assay [2] (setting [11]) and in assay [3] (setting [11]) were under 0.001 µM, 0.15 ± 0.02 µM and 0.03 ± 0.01 µM, respectively.
Regarding `Cc1c(O)cccc1C(=O)N[C@@H](CSc1ccccc1)[C@H](O)CN1C[C@H]2CCCC[C@H]2C[C@H]1C(=O)NC(C)(C)C` [NFV, nelfiravir], the EC50 in assay [1] (read-out: EC50) was under 0.001 µM; in assay [2] (setting [9]), 0.42 ± 0.02 µM; in assay [3] (setting [10]), 1.64 ± 0.22 µM.

Source of the values: publication PMC11459959, “Discovery of new acetamide derivatives of 5-indole-1,3,4-oxadiazol-2-thiol as inhibitors of HIV-1 Tat-mediated viral transcription” (Antimicrobial Agents and Chemotherapy, 2024).
